These results are taken from publication PMC12648108, “Phenotypic pleiotropy of missense variants in human B cell confinement receptor P2RY8” (Cell Genomics, 2025).

Assay [1] concerns the target T1, P2RY8-miniGα13 in complex with Gβ1γ2 (Homo sapiens, UniProt Q86VZ1).
T1 construct: Expi293F TetR; complexed with human Gβ1γ2 from Hi5 cells
Put plainly: cryo-EM structure, […] Å map. The assay is classed as binding. The following applies: orthosteric pocket; active state, Gβ1γ2 bound; pH 7.5, L-MNG/GDN/CHS, 30 μM GGG.

In assay [2] the target is T2, P2RY8 (Homo sapiens, UniProt Q86VZ1, L220Y).
T2 construct: full length, 358 codons after start to 358; preprolactin signal + N-terminal OX56 tag (P2A-eGFP vector) for BRET; P2RY8-LgBiT fusion for beta-arrestin; MSCV-GFP vector in WEHI-231; expressed in HEK293T or WEHI-231
Briefly: TRUPATH BRET G13 activation assay. The assay is classed as cell-based. The following applies: agonist (falling BRET ratio); HEK293T with Gα13-RLuc8, Gβ3, Gγ9-GFP2; HBSS, 20 mM HEPES. In general terms: In BRET a luciferase serves as donor, and the signal depends on an acceptor being close.

In assay [3] the target is T3, P2RY8 (Homo sapiens, UniProt Q86VZ1).
T3 construct: full length, 358 codons after start to 358; preprolactin signal + N-terminal OX56 tag (P2A-eGFP vector) for BRET; P2RY8-LgBiT fusion for beta-arrestin; MSCV-GFP vector in WEHI-231; expressed in HEK293T or WEHI-231
Put plainly: migration inhibition of P2RY8-transduced WEHI-231 cells. The assay is classed as cell-based. The settings on record: agonist; CXCL12 50 ng/mL, 37 °C, 3 h.

Consider `CC(C)=CCC/C(C)=C/CC/C(C)=C/CC/C(C)=C/CSC[C@H](NC(=O)CC[C@H](N)C(=O)O)C(=O)NCC(=O)O` [S-geranylgeranyl-L-glutathione], for which the “cryo-EM structure, 2.7 Å map” value in assay [1] is on record as “density consistent with GGG located in the canonical class A GPCR orthosteric ligand-binding pocket”. For the same compound, the G protein activation result in assay [2] is reported as “The strongly deleterious variant L220Y was unable to drive G protein activation”. As for `CCCCC/C=C\C\C=C/C=C/C=C/[C@@H](SC[C@H](NC(=O)CC[C@H](N)C(=O)O)C(=O)NCC(=O)O)[C@@H](O)CCCC(=O)O` [leukotriene C4], the “fold less potency than GGG” value in assay [3] is ~ 100 fold.
